Measured values taken from patent publication US12723063B2, “GIPR-agonist compounds” (Eli Lilly and Company, priority 2019, dated 2026).
*1 amine or outer side, *2 acyl side, *3 side chain or, on linkers, in order; H or OH if unused. Where a SMILES comes first, the peptide text is derived from it. Side-chain parts run from the residue outwards. [ ]: non-standard residue; d: D form. The star is where a group is joined. C20 diacid = O=C(O)CCCCCCCCCCCCCCCCCCC(=O)*; C18 diacid = O=C(O)CCCCCCCCCCCCCCCCC(=O)*; αMePhe(2-F) = C[C@](N)(Cc1ccccc1F)C(=O)O; γGlu = O=C(O)[C@H](CCC(=O)[*:2])N[*:1]; αMeY = C[C@](N)(Cc1ccc(O)cc1)C(=O)O; 4Pal = N[C@@H](Cc1ccncc1)C(=O)O; αMeL = CC(C)C[C@](C)(N)C(=O)O; AEEA = NCCOCCOCC(=O)O; Aib = CC(C)(N)C(=O)O

Assays:
Test in all cases: cAMP functional assay (HTRF) in HEK293 cells in presence of 0.1% casein
Assay type in all cases: cell-based
[1] = biological target: T1, human GLP-1 receptor (GLP-1R) (Homo sapiens, UniProt P43220); conditions: HEK293 cells expressing human GLP-1R, geometric mean, read-out: hGLP1R cAMP Rel EC50 nM (SEM, n)
T1 construct: expressed in transfected cells; host or cells: HEK293

[2] = biological target: T2, human glucagon receptor (GcgR) (Homo sapiens, UniProt P47871); conditions: HEK293 cells expressing human GcgR, geometric mean, read-out: hGcgR cAMP Rel EC50 nM (SEM, n)
T2 construct: expressed in transfected cells; host or cells: HEK293

[3] = biological target: T3, human glucose-dependent insulinotropic peptide receptor (GIPR) (Homo sapiens, UniProt P48546); conditions: HEK293 cells expressing human GIPR, geometric mean, read-out: hGIPR cAMP Rel EC50 nM (SEM, n)
T3 construct: expressed in transfected cells; host or cells: HEK293
T3 sequence (P48546 22-466): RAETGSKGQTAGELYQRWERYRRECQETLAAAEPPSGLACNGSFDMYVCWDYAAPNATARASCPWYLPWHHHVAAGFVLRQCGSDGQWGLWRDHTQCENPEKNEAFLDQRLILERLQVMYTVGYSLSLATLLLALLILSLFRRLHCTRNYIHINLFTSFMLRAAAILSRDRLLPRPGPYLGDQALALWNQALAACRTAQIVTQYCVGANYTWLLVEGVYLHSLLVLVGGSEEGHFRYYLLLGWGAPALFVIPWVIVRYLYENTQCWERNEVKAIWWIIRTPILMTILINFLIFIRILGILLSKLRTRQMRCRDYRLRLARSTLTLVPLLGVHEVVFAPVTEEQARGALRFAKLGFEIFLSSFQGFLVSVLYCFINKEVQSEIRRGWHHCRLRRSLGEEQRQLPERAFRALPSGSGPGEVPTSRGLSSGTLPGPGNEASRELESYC

T2 sequence (P47871 26-477): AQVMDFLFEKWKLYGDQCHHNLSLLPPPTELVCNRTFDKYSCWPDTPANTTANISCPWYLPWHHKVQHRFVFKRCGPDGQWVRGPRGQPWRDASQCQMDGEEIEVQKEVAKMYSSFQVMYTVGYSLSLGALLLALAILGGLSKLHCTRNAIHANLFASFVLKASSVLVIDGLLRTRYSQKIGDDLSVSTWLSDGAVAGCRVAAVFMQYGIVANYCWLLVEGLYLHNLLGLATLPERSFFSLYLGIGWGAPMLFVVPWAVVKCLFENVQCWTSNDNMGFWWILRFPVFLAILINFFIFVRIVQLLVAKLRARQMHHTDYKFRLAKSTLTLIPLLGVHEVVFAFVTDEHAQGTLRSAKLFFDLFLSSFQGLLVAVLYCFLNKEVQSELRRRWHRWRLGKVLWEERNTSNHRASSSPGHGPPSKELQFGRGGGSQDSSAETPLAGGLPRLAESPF
T1 sequence (P43220 24-463): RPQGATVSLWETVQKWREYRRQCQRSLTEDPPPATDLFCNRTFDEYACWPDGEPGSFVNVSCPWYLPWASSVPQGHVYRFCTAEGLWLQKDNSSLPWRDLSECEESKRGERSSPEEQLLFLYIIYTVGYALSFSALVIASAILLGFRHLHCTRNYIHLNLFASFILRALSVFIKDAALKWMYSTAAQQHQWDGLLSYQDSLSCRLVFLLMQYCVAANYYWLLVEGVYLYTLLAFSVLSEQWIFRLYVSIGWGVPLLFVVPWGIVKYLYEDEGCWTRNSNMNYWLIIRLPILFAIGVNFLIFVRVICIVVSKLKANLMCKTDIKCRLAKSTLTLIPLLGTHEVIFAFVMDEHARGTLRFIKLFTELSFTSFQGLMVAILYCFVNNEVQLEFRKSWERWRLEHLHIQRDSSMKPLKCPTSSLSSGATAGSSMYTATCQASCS

Row | SMILES | EC50 [1] [nM] | EC50 [2] [nM] | EC50 [3] [nM]
1 | CC[C@H](C)[C@H](NC(=O)[C@H](Cc1ccccc1)NC(=O)[C@@H](NC(=O)CNC(=O)[C@H](CCC(=O)O)NC(=O)C(C)(C)NC(=O)[C@@H](N)Cc1ccc(O)cc1)[C@@H](C)O)C(=O)N[C@@H](CO)C(=O)N[C@@H](CC(=O)O)C(=O)N[C@@H](Cc1ccc(O)cc1)C(=O)N[C@@H](CO)C(=O)N[C@H](C(=O)NC(C)(C)C(=O)N[C@@H](CC(C)C)C(=O)N[C@@H](CC(=O)O)C(=O)N[C@@H](CCCCN)C(=O)N[C@@H](CCCCNC(=O)COCCOCCNC(=O)COCCOCCNC(=O)CC[C@H](NC(=O)CCCCCCCCCCCCCCCCC(=O)O)C(=O)O)C(=O)N[C@@H](Cc1c[nH]cn1)C(=O)N[C@@H](CCC(N)=O)C(=O)NC(C)(C)C(=O)N[C@@H](CC(=O)O)C(=O)N[C@@H](Cc1ccccc1)C(=O)N[C@H](C(=O)N[C@@H](CCC(=O)O)C(=O)N[C@@H](Cc1ccncc1)C(=O)N[C@@H](CC(C)C)C(=O)N[C@@H](CC(C)C)C(=O)N[C@@H](C)C(=O)NCC(=O)NCC(=O)N1CCC[C@H]1C(=O)N[C@@H](CO)C(=O)N[C@@H](CO)C(=O)NCC(=O)N[C@@H](C)C(=O)N1CCC[C@H]1C(=O)N1CCC[C@H]1C(=O)N1CCC[C@H]1C(=O)N[C@@H](CO)C(N)=O)C(C)C)[C@@H](C)CC [Example 24] | > 5000 | > 5000 | 0.0699
2 | CC[C@H](C)[C@H](NC(=O)[C@H](CO)NC(=O)[C@H](Cc1ccc(O)cc1)NC(=O)[C@H](CC(=O)O)NC(=O)[C@H](CO)NC(=O)[C@@H](NC(=O)[C@](C)(Cc1ccccc1F)NC(=O)[C@@H](NC(=O)CNC(=O)[C@H](CCC(=O)O)NC(=O)C(C)(C)NC(=O)[C@@H](N)Cc1ccc(O)cc1)[C@@H](C)O)[C@@H](C)CC)C(=O)N[C@@H](CC(C)C)C(=O)N[C@@H](CC(C)C)C(=O)N[C@@H](CC(=O)O)C(=O)N[C@@H](CCCCN)C(=O)N[C@H](C(=O)N[C@@H](Cc1c[nH]cn1)C(=O)N[C@@H](CCC(N)=O)C(=O)NC(C)(C)C(=O)N[C@@H](CC(=O)O)C(=O)N[C@@H](Cc1ccccc1)C(=O)N[C@H](C(=O)N[C@@H](CCC(=O)O)C(=O)N[C@@H](Cc1ccncc1)C(=O)N[C@@H](CCCCNC(=O)COCCOCCNC(=O)COCCOCCNC(=O)CC[C@H](NC(=O)CCCCCCCCCCCCCCCCCCC(=O)O)C(=O)O)C(=O)N[C@@H](CC(C)C)C(=O)N[C@@H](CCC(=O)O)C(=O)N[C@@H](CCC(N)=O)C(=O)NCC(=O)N1CCC[C@H]1C(=O)N[C@@H](CO)C(=O)N[C@@H](CO)C(=O)NCC(=O)N[C@@H](C)C(=O)N1CCC[C@H]1C(=O)N1CCC[C@H]1C(=O)N1CCC[C@H]1C(=O)N[C@@H](CO)C(N)=O)C(C)C)[C@@H](C)CC [Example 121] (H-Y[Aib]EGT[αMePhe(2-F)]ISDYSILLDKIHQ[Aib]DFVE[4Pal]K([AEEA-AEEA-γGlu-C20 diacid])LEQGPSSGAPPPS-NH2) | > 5000 | > 5000 | 0.0196
3 | CC[C@H](C)[C@H](NC(=O)[C@H](CO)NC(=O)[C@H](Cc1ccc(O)cc1)NC(=O)[C@H](CC(=O)O)NC(=O)[C@H](CO)NC(=O)[C@@H](NC(=O)[C@H](Cc1ccccc1)NC(=O)[C@@H](NC(=O)CNC(=O)[C@H](CCC(=O)O)NC(=O)[C@@H](C)NC(=O)[C@@H](N)Cc1ccc(O)cc1)[C@@H](C)O)[C@@H](C)CC)C(=O)N[C@@H](CC(C)C)C(=O)N[C@@H](CC(C)C)C(=O)N[C@@H](CC(=O)O)C(=O)N[C@@H](CCCCN)C(=O)N[C@@H](CCCCNC(=O)COCCOCCNC(=O)COCCOCCNC(=O)CC[C@H](NC(=O)CCCCCCCCCCCCCCCCCCC(=O)O)C(=O)O)C(=O)N[C@@H](C)C(=O)N[C@@H](CCC(N)=O)C(=O)N[C@@H](CCC(N)=O)C(=O)N[C@@H](CC(=O)O)C(=O)N[C@@H](Cc1ccccc1)C(=O)N[C@H](C(=O)N[C@@H](CC(N)=O)C(=O)N[C@@H](Cc1c[nH]c2ccccc12)C(=O)N[C@@H](CC(C)C)C(=O)N[C@@H](CC(C)C)C(=O)N[C@@H](C)C(=O)N[C@@H](CCC(N)=O)C(=O)NCC(=O)N1CCC[C@H]1C(=O)N[C@@H](CO)C(=O)N[C@@H](CO)C(=O)NCC(=O)N[C@@H](C)C(=O)N1CCC[C@H]1C(=O)N1CCC[C@H]1C(=O)N1CCC[C@H]1C(=O)N[C@@H](CO)C(N)=O)C(C)C [Example 11] (H-Y[dA]EGTFISDYSILLDKK([AEEA-AEEA-γGlu-C20 diacid])AQQDFVNWLLAQGPSSGAPPPS-NH2) | > 100 | 445 | 0.0738
4 | CC[C@H](C)[C@H](NC(=O)[C@H](CO)NC(=O)[C@H](Cc1ccc(O)cc1)NC(=O)[C@H](CC(=O)O)NC(=O)[C@H](CO)NC(=O)[C@@H](NC(=O)[C@H](Cc1ccccc1)NC(=O)[C@@H](NC(=O)CNC(=O)[C@H](CCC(=O)O)NC(=O)[C@@H](C)NC(=O)[C@@H](N)Cc1ccc(O)cc1)[C@@H](C)O)[C@@H](C)CC)C(=O)N[C@@H](CC(C)C)C(=O)N[C@@H](CC(C)C)C(=O)N[C@@H](CC(=O)O)C(=O)N[C@@H](CCCCN)C(=O)N[C@@H](CCCCNC(=O)COCCOCCNC(=O)COCCOCCNC(=O)CC[C@H](NC(=O)CCCCCCCCCCCCCCCCC(=O)O)C(=O)O)C(=O)N[C@@H](C)C(=O)N[C@@H](CCC(N)=O)C(=O)NC(C)(C)C(=O)N[C@@H](CCC(=O)O)C(=O)N[C@@H](Cc1ccccc1)C(=O)N[C@H](C(=O)N[C@@H](CCC(N)=O)C(=O)N[C@@H](Cc1c[nH]c2ccccc12)C(=O)N[C@@H](CC(C)C)C(=O)N[C@@H](CC(C)C)C(=O)N[C@@H](C)C(=O)NCC(=O)NCC(=O)N1CCC[C@H]1C(=O)N[C@@H](CO)C(=O)N[C@@H](CO)C(=O)NCC(=O)N[C@@H](C)C(=O)N1CCC[C@H]1C(=O)N1CCC[C@H]1C(=O)N1CCC[C@H]1C(=O)N[C@@H](CO)C(N)=O)C(C)C [Example 27] (H-Y[dA]EGTFISDYSILLDKK([AEEA-AEEA-γGlu-C18 diacid])AQ[Aib]EFVQWLLAGGPSSGAPPPS-NH2) | > 5000 | > 5000 | 0.0132
5 | CC[C@H](C)[C@H](NC(=O)[C@H](Cc1ccccc1)NC(=O)[C@@H](NC(=O)CNC(=O)[C@H](CCC(=O)O)NC(=O)C(C)(C)NC(=O)[C@@H](N)Cc1ccc(O)cc1)[C@@H](C)O)C(=O)N[C@@H](CO)C(=O)N[C@@H](CC(=O)O)C(=O)N[C@@H](Cc1ccc(O)cc1)C(=O)N[C@@H](CO)C(=O)N[C@H](C(=O)N[C@@](C)(CC(C)C)C(=O)N[C@@H](CC(C)C)C(=O)N[C@@H](CC(=O)O)C(=O)N[C@@H](CCCCN)C(=O)N[C@@H](CCCCNC(=O)COCCOCCNC(=O)COCCOCCNC(=O)CC[C@H](NC(=O)CCCCCCCCCCCCCCCCCCC(=O)O)C(=O)O)C(=O)N[C@@H](Cc1c[nH]cn1)C(=O)N[C@@H](CCC(N)=O)C(=O)NC(C)(C)C(=O)N[C@@H](CC(=O)O)C(=O)N[C@@H](Cc1ccccc1)C(=O)N[C@H](C(=O)N[C@@H](CCC(=O)O)C(=O)N[C@@](C)(Cc1ccc(O)cc1)C(=O)N[C@@H](CC(C)C)C(=O)N[C@@H](CC(C)C)C(=O)N[C@@H](CCC(=O)O)C(=O)N[C@@H](C)C(=O)NCC(=O)N1CCC[C@H]1C(=O)N[C@@H](CO)C(=O)N[C@@H](CO)C(=O)NCC(=O)N[C@@H](C)C(=O)N1CCC[C@H]1C(=O)N1CCC[C@H]1C(=O)N1CCC[C@H]1C(=O)N[C@@H](CO)C(N)=O)C(C)C)[C@@H](C)CC [Example 90] (H-Y[Aib]EGTFISDYSI[αMeL]LDKK([AEEA-AEEA-γGlu-C20 diacid])HQ[Aib]DFVE[αMeY]LLEAGPSSGAPPPS-NH2) | > 5000 | > 5000 | 0.0272
6 | CC[C@H](C)[C@H](NC(=O)[C@H](CO)NC(=O)[C@H](Cc1ccc(O)cc1)NC(=O)[C@H](CC(=O)O)NC(=O)[C@H](CO)NC(=O)[C@@H](NC(=O)[C@](C)(Cc1ccccc1F)NC(=O)[C@@H](NC(=O)CNC(=O)[C@H](CCC(=O)O)NC(=O)C(C)(C)NC(=O)[C@@H](N)Cc1ccc(O)cc1)[C@@H](C)O)[C@@H](C)CC)C(=O)N[C@@H](C)C(=O)N[C@@H](CC(C)C)C(=O)N[C@@H](CC(=O)O)C(=O)N[C@@H](CCCCN)C(=O)N[C@@H](CCCCNC(=O)COCCOCCNC(=O)COCCOCCNC(=O)CC[C@H](NC(=O)CCCCCCCCCCCCCCCCCCC(=O)O)C(=O)O)C(=O)N[C@@H](Cc1c[nH]cn1)C(=O)N[C@@H](CCC(N)=O)C(=O)NC(C)(C)C(=O)N[C@@H](CCC(=O)O)C(=O)N[C@@H](Cc1ccccc1)C(=O)N[C@H](C(=O)N[C@@H](CC(N)=O)C(=O)N[C@@H](Cc1c[nH]c2ccccc12)C(=O)N[C@@H](CC(C)C)C(=O)N[C@@H](CC(C)C)C(=O)N[C@@H](C)C(=O)NCC(=O)NCC(=O)N1CCC[C@H]1C(=O)N[C@@H](CO)C(=O)N[C@@H](CO)C(=O)NCC(=O)N[C@@H](C)C(=O)N1CCC[C@H]1C(=O)N1CCC[C@H]1C(=O)N1CCC[C@H]1C(=O)N[C@@H](CO)C(N)=O)C(C)C [Example 26] (H-Y[Aib]EGT[αMePhe(2-F)]ISDYSIALDKK([AEEA-AEEA-γGlu-C20 diacid])HQ[Aib]EFVNWLLAGGPSSGAPPPS-NH2) | 5.69 | > 5000 | 0.00991
